Earlier results, collected in patent US20110237609A1, “ANTIFOLATE COMPOSITIONS” (Chelsea Therapeutics, Inc., priority 2010, published 2011).

Assays:
[1] = in words; b190 refers to US 20090253720
[2] = in words, background statement

bioavailability [2]	SMILES	solubility characteristics [1]
–	C=C(CC(NC(=O)c1ccc(CCc2ccc3nc(N)nc(N)c3c2)cc1)C(=O)O)C(=O)O (stereo not drawn)	improved solubility characteristics in comparison to the dioic acid form
low bioavailability	C=C(CC(NC(=O)c1ccc(CCc2ccc3nc(N)nc(N)c3c2)cc1)C(=O)O)C(=O)O (racemic) [compound of Formula (9), 2-{-4-[2-(2,4-diamino-quinazolin-6-yl)-ethyl]-benzoylamino}-4-methylene-pentanedioic acid]	low solubility
